Source: ChEMBL document CHEMBL1201862, “PubChem BioAssay data set” (2004)
Each block holds one compound with its values, some of them ahead of it. The source made the active and inactive calls.

What was measured:
[1] = biological target: 1-phosphatidylinositol 4,5-bisphosphate phosphodiesterase beta-3 (Homo sapiens, UniProt Q01970); assay: Fluorescence-based biochemical high throughput dose response assay to identify inhibitors of phospholipase C isozymes (PLC-B3).
[2] = biological target: 1-phosphatidylinositol 4,5-bisphosphate phosphodiesterase gamma-1 (Homo sapiens, UniProt P19174); assay: Counterscreen for inhibitors of phospholipase C isozymes (PLC-B3): Fluorescence-based biochemical high throughput dose response assay to identify inhibitors of phospholipase C isozymes (PLC-gamma1).
cells [3] = type: functional, cell-based
[4] = biological target: T1, Oxysterols receptor LXR-beta (Homo sapiens, UniProt P55055); type: functional, cell-based;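 also: agonist activity at LXR measured by a cell-based luminescence readout across a dose range, run as a counterscreen for daf-12 agonists; HEK293 cells with Gal4-LXR fusion and GAL4-driven luciferase reporter; potency for activation of Gal4-LXR reporter so compounds are agonists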
T1 sequence (P55055 whole entry): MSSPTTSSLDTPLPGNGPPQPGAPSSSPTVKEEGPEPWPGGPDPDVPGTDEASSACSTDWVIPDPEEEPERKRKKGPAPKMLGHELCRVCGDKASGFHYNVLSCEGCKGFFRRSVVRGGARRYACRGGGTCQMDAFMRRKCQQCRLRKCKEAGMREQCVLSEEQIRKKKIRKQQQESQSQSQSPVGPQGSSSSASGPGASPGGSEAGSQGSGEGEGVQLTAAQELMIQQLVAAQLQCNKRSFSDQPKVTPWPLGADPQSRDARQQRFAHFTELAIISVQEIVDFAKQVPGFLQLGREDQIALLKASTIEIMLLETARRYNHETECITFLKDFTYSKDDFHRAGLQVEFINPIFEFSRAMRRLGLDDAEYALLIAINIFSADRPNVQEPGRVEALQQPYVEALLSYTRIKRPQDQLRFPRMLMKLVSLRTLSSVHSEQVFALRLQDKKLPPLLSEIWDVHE

cells [5] = type: functional, cell-based; remark: listed apart in the source
[6] = cytotoxicity in OV-90 ovarian cancer cells, dose response, PAX8 inhibitor project, cell-based, plate reader, dry powder, SA8 (AID 743149); type: functional
Paired box protein Pax-8 = Paired box protein Pax-8 (Homo sapiens, UniProt Q06710); assay: inhibitors of PAX8-driven TPO luciferase reporter, dose response, RMG-I cells, cherry-pick (AID 687027); type: functional, cell-based;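 also: luciferase reporter driven by Pax8 target thyroperoxidase promoter measured by SteadyGlo luminescence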
[7] = cytotoxicity in OVCAR8 ovarian cancer cells, dose response, PAX8 project, cell-based, plate reader, dry powder samples (AID 743197); type: functional; settings: OVCAR-8
[8] = NIH:OVCAR-3 ovarian cancer cell cytotoxicity, dose response, PAX8 inhibitor project, plate reader, dry powder samples (AID 743044); type: functional, cell-based
[9] = cytotoxicity dependent on PAX8, dose response, cell-based, plate reader, dry powder (AID 743049); type: functional
[10] = PAX2 cell-based inhibition, dose response, selectivity assay for PAX8 inhibitor project, plate reader, dry powder samples (AID 743048); type: functional;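 also: HEK293 cells carrying a WT1 promoter luciferase reporter driven by expressed Pax2; potency is for inhibition of Pax2 driven reporter signal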
[11] = cytotoxicity in COV362 ovarian cancer cells, dose response, cytotoxicity control for PAX8 inhibitor project, cell-based, plate reader, dry powder, SA12 (AID 743144); type: functional
[12] = A2780 ovarian cancer cell cytotoxicity, dose response, cytotoxicity control, plate reader, dry powder samples (AID 743046); type: functional, cell-based
[13] = cytotoxicity in COV434 cells, dose response, cytotoxicity control for PAX8 inhibitor project, cell-based, plate reader, dry powder, SA7 (AID 743145); type: functional
[14] = PAX5 activity inhibitors, dose response, selectivity assay for PAX8 inhibitor project, cell-based, plate reader, dry powder samples (AID 743047); type: functional;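 also: HEK293 cells carrying a Pax5 driven CD19 promoter luciferase reporter; potency of inhibitors that lower reporter luminescence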
[15] = MC4R antagonists, dose response, counter-screen for LGR2 antagonist project, cell-based, plate reader, cherry pick (AID 743444); type: functional;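 also: transfected HEK 293 cells stimulated with alpha-MSH peptide; potency of inhibitors of the alpha-MSH evoked signal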
[16] = A549 cell cytotoxicity, dose response, cytotoxicity control, plate reader, cherry-pick, antagonist series (AID 743412); type: functional, cell-based
[17] = LGR2 antagonists, dose response, cell-based, HEK293, CRE-luciferase reporter, cherry pick, set 2 (AID 743343); type: functional;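 also: transfected cells were stimulated with diluted bursicon conditioned medium after compound addition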

Chain of 1-phosphatidylinositol 4,5-bisphosphate phosphodiesterase gamma-1 (P19174 whole entry): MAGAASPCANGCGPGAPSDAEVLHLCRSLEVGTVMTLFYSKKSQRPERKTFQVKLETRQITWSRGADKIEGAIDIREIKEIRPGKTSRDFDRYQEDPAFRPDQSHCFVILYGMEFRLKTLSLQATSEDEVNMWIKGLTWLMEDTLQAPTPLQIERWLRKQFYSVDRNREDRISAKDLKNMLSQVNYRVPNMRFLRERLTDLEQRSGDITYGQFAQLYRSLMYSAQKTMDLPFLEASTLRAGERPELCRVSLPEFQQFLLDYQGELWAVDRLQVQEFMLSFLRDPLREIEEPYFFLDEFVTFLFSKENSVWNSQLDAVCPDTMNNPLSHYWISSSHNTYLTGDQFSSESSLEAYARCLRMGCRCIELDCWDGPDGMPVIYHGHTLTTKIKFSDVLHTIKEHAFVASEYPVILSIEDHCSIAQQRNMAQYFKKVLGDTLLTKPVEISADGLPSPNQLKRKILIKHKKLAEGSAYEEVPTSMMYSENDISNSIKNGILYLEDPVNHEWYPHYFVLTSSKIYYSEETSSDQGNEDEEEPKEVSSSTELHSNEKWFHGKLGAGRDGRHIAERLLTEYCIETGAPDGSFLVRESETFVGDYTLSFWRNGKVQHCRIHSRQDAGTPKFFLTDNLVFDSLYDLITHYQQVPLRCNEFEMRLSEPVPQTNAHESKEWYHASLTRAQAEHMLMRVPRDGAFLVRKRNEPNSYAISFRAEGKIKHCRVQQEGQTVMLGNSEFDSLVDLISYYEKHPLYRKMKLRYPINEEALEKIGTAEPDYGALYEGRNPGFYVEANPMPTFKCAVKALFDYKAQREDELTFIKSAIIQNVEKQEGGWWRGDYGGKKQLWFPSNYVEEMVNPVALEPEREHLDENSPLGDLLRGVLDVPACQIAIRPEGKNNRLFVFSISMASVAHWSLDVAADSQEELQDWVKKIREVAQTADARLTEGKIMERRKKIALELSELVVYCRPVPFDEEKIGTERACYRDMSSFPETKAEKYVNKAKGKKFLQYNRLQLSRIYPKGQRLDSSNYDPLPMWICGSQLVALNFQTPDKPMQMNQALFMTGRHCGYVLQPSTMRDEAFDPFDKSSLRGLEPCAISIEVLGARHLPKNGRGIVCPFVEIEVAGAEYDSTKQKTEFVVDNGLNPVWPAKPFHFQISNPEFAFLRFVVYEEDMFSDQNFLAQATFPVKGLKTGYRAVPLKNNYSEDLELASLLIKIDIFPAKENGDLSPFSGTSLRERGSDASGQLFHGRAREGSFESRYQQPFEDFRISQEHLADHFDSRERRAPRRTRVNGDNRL
Chain of 1-phosphatidylinositol 4,5-bisphosphate phosphodiesterase beta-3 (Q01970 whole entry): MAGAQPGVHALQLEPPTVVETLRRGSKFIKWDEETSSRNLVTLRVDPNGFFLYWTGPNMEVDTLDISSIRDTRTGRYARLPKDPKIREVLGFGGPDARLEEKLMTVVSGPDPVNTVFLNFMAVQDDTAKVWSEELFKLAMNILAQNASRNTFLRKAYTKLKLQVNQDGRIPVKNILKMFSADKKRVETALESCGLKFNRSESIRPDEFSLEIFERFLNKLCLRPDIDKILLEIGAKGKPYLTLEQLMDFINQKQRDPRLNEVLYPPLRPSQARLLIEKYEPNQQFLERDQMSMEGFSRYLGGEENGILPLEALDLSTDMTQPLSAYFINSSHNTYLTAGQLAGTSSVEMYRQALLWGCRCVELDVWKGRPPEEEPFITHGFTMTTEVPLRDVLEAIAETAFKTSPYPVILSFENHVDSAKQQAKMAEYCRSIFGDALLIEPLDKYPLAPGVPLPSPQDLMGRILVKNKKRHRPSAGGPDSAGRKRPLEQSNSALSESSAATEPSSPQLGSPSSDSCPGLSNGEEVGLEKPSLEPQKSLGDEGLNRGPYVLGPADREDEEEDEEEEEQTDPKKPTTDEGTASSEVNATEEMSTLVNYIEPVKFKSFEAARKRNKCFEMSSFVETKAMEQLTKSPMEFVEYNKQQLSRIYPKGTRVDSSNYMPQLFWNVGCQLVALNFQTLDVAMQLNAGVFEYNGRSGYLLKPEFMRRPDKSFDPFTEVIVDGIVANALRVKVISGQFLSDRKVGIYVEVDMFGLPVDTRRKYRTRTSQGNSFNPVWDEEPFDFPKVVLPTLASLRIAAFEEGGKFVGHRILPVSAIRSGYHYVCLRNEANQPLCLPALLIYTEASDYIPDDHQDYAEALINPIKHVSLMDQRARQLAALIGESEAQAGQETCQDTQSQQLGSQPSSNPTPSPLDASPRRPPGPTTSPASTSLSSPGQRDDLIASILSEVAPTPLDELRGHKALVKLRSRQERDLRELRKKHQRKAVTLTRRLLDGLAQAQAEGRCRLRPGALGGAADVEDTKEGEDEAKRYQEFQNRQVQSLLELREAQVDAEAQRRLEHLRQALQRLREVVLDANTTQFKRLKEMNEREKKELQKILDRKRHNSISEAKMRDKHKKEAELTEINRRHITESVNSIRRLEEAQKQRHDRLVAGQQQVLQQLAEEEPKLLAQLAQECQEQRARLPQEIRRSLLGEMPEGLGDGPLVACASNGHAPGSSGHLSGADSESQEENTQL
Chain of Paired box protein Pax-8 (Q06710 whole entry): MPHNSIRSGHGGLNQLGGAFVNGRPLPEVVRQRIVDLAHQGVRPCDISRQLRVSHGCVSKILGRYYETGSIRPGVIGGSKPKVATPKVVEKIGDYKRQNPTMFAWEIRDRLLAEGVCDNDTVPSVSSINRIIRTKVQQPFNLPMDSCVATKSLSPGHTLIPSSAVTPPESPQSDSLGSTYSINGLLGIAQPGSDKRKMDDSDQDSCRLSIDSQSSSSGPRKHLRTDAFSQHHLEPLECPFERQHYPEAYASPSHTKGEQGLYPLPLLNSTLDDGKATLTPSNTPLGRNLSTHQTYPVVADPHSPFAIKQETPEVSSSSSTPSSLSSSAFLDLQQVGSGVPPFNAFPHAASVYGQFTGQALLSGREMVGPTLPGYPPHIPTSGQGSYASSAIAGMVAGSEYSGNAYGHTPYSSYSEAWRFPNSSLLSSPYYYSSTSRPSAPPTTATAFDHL

IC50 [1]: > 122 µM (inactive)
IC50 [2]: 2.7 µM (active)
SMILES: COC(=O)C(C)(C)c1cccnc1C#N

SMILES: CSc1ccc(/C=N/Nc2ccc(Cl)c(C(=O)O)c2)cc1
EC50 (cells [3]): 7.23 µM (active)
EC50 [4]: > 67.5 µM (inactive)
EC50 (cells [5]): > 350 µM (not active)

SMILES: CCCC#Cc1ccc([C@H]2[C@@H](C#N)N(C(=O)C3CCCCC3)[C@H]2CO)cc1
AC50 [6]: 28 µM (active)
AC50 (Paired box protein Pax-8): 12.7 µM (active)
AC50 [7]: 30.3 µM (active)
AC50 [8]: 29.6 µM (active)
AC50 [9]: 13.2 µM (active)
AC50 [10]: 7.11 µM (active)
AC50 [11]: 49.9 µM (active)
AC50 [12]: 23.9 µM (active)
AC50 [13]: 30 µM (active)
AC50 [14]: 3.5 µM (active)

IC50 [1]: 55.4 µM (inactive)
IC50 [2]: 59.1 µM (inactive)
SMILES: CCCNC(=O)C[C@H]1CC[C@H]2[C@@H](COc3ccc(NC(=O)c4cncs4)cc3C(=O)N2C)O1

SMILES: CN1c2ccc(-c3ccc(F)cc3)cc2[C@H]2[C@H](CCN2C(=O)Nc2ccc(F)cc2)[C@H]1CO
AC50 [15]: 18.4 µM (active)
AC50 [16]: 24.3 µM (active)
AC50 [17]: 18.6 µM (active)
